Test [1] is described as follows: Binding constant for EphB2 tyrosine kinase.
A short description of test [2]: Inhibition of EphB2 receptor tyrosine kinase in ELISA assay. (In general: ELISA stands for enzyme-linked immunosorbent assay.)

In general, Kd refers to the equilibrium constant for the complex coming apart. Lower therefore signals a tighter complex. The term IC50 denotes the midpoint of a concentration-inhibition curve. In test [1], `COc1cc2ncnc(Nc3cccc(O)c3)c2cc1OC` gave a Kd of 2.4 µM. The IC50 in test [2] came to 1.2 µM.

Turning to `COc1cc2ncnc(Nc3cccc(Br)c3)c2cc1OC`, in test [1], binding was characterised by a dissociation constant (Kd) of 8.1 µM. Also, it took 10.2 µM to reach half-maximal inhibition in test [2] (IC50).

The compound `CN(C)c1ccc(/C=C2\C(=O)Nc3ccccc32)cc1` registered a Kd in test [1] of 19.5 µM. The midpoint of inhibition in test [2], the IC50, lay at 27.5 µM.

Consider `CC(C)(C)n1nc(-c2ccc(Cl)cc2)c2c(N)ncnc21`, for which the Kd in test [1] amounted to 36.5 µM. The same compound had an IC50 in test [2] of 52 µM.

For the compound `CNc1cc2c(Nc3cccc(Br)c3)ncnc2cn1`, in test [1], binding was characterised by a dissociation constant (Kd) of 21.9 µM. Besides, in test [2], the half-maximal inhibitory concentration (IC50) was determined as 34 µM.

In the case of `COc1cc2ncnc(Nc3ccc(Oc4ccccc4)cc3)c2cc1OC`, binding in test [1] was put at a Kd of 58.4 µM. In test [2], this compound came in with an IC50 of 86 µM.
